Data from patent US20050214285A1, “Epitopes or mimotopes derived from the C-epsilon-3 or C-epsilon-4 domains of IgE, antagonists thereof, and their therapeutic uses” (SmithKline Beecham Biologicals, s.a. and Peptide …, priority 1999, published 2005).
Positions of bridges follow the written chain, without caps; N, C: chain ends. Residues, ends and D or L forms follow the SMILES beside them. No end group written: not given here.

Legend:
PTmAb0005 [1] = experiment: BIAcore affinity to PTmAb0005; type: binding; conditions: read-out: PTmAb BIAcore KD^Rel (μM) PTmAb0005
Text: (§1) This involved a DNA sub-cloning transfer from the major coat protein (gVIIIp) filamentous phage display vector to a lower copy number minor phage coat protein (gIIIp) display vector with a random PCR step. […] Included in the tables are ranking orders and also BIAcore affinities where available.
(§2) Thus indicating the importance of correct presentation of the peptides of the present invention to adopt a shape which closely resembles the native target in the context of the whole IgE molecule. [drawing]

PTmAb0011 [2] = experiment: Phage display ranking of peptide ligands for PTmAb0011; type: binding, mouse; conditions: primary phage display biopannings (Table 7)
Text: (§3) Phage display libraries were used to map the binding sites of the monoclonal antibodies using three different phage libraries, displaying either the XCX15, XCX10 or XAX10 peptide sequence (where X is any amino acid) at the N-terminus of the phage gVIIIp. Tables 6 and 7 show the results of selecting for peptide ligands with the anti human IgE monoclonal antibodies […]. […]
as §1

PTmAb0011 [3] = experiment: BIAcore affinity to PTmAb0011; type: binding, mouse; conditions: read-out: PTmAb BIAcore KD^Rel (μM) PTmAb0011
Text: as §1, §2

PTmAb0005 [4] = experiment: Phage display ranking of peptide ligands for PTmAb0005; type: binding; conditions: for Rank (ECL) PTmAb0005: primary phage display biopannings (Table 6)
Description: as §3
This was performed by introducing random mutations by PCR mutagenesis and sub-cloning into the Fuse 5 vector for minor filamentous phage protein gIIIp display. These, and other results, confirmed the importance of the amino acids within IgEC67 which aligned with the Cε2 epitope. […] Mutations in other sites had little effect on the affinity to PTmAb0005.
as §1

Kd (PTmAb0005 [1])	Kd (PTmAb0011 [3])	binding / affinity to PTmAb0005 (PTmAb0005 [4]; IgEC67 and its mutants, gIIIp display)	Compound	Rank (ECL) PTmAb0011 (PTmAb0011 [2])	Rank (ECL) PTmAb0005 (PTmAb0005 [4])
> 600 µM	> 600 µM	–	CSCC[C@H](NC(=O)[C@H](CCC(=O)O)NC(=O)[C@H](CO)NC(=O)[C@H](CO)NC(=O)[C@@H]1CCCN1C(=O)[C@@H](NC(=O)[C@H](CCSC)NC(=O)[C@H](CCC(N)=O)NC(=O)[C@@H](NC(=O)[C@H](CCC(=O)O)NC(=O)[C@@H]1CCCN1C(=O)[C@H](CC(=O)O)NC(=O)[C@H](C)NC(=O)[C@@H](NC(=O)[C@H](CS)NC(=O)[C@@H](N)CS)C(C)C)[C@@H](C)O)[C@@H](C)O)C(=O)N[C@@H](Cc1ccccc1)C(=O)O [IgEC29] (H-CCVADPETQMTPSSEMF-OH)	–	40
19.4 µM	> 500 µM	–	CC[C@H](C)[C@H](NC(=O)[C@H](CCCCN)NC(=O)[C@H](CC(C)C)NC(=O)[C@H](CS)NC(=O)[C@@H](N)CCC(=O)O)C(=O)N[C@@H](CCC(=O)O)C(=O)N[C@@H](CCC(N)=O)C(=O)N[C@@H](CCC(N)=O)C(=O)N[C@@H](CS)C(=O)N[C@@H](C)C(=O)N[C@@H](CC(=O)O)C(=O)N[C@H](C(=O)N[C@H](C(=O)N[C@@H](CCC(=O)O)C(=O)N[C@H](C(=O)N1CCC[C@H]1C(=O)N[C@@H](CCCNC(=N)N)C(=O)O)[C@@H](C)CC)C(C)C)[C@@H](C)CC [IgEC42] (H-ECLKIEQQCADIVEIPR-OH)	–	15
60 µM	> 1000 µM	–	CSCC[C@H](NC(=O)[C@@H](NC(=O)[C@H](Cc1ccccc1)NC(=O)[C@H](CCC(N)=O)NC(=O)[C@H](CCCNC(=N)N)NC(=O)[C@H](CS)NC(=O)[C@@H](N)CCC(N)=O)C(C)C)C(=O)N[C@@H](CC(N)=O)C(=O)N[C@@H](CCC(N)=O)C(=O)N[C@@H](CO)C(=O)N[C@@H](CCC(=O)O)C(=O)N[C@@H](CCCCN)C(=O)N[C@@H](CCC(=O)O)C(=O)N[C@@H](Cc1ccccc1)C(=O)NCC(=O)N[C@@H](CCC(N)=O)C(=O)N[C@@H](CS)C(=O)O [IgEC56] (H-QCRQFVMNQSEKEFGQC-OH)	–	0
> 600 µM	> 600 µM	–	CC[C@H](C)[C@H](NC(=O)[C@@H]1CCCN1C(=O)[C@H](CC(C)C)NC(=O)CNC(=O)[C@H](CCCNC(=N)N)NC(=O)[C@H](CC(N)=O)NC(=O)[C@@H]1CCCN1C(=O)[C@H](CC(=O)O)NC(=O)[C@H](C)NC(=O)[C@@H]1CCCN1C(=O)[C@H](CO)NC(=O)[C@H](CC(=O)O)NC(=O)[C@H](CO)NC(=O)[C@H](CCSC)NC(=O)[C@H](CS)NC(=O)[C@@H](N)CS)C(=O)N[C@@H](Cc1c[nH]c2ccccc12)C(=O)O [IgEC66] (H-CCMSDSPADPNRGLPIW-OH)	–	0
0.1 µM	4.8 µM	highest affinity	CSCC[C@@H]1NC(=O)[C@H](Cc2ccccc2)NC(=O)[C@@H](N)CSSC[C@@H](C(=O)N2CCC[C@H]2C(=O)N[C@@H](CCCNC(=N)N)C(=O)N[C@@H](CCC(=O)O)C(=O)O)NC(=O)[C@H](CC(C)C)NC(=O)[C@H](CCC(=O)O)NC(=O)[C@H](CC(C)C)NC(=O)[C@H](CC(=O)O)NC(=O)[C@H](C)NC(=O)[C@H](CC(C)C)NC(=O)[C@H](CCC(N)=O)NC(=O)[C@H](CCCCN)NC(=O)[C@H](CC(N)=O)NC1=O [IgEC67] (H-CFMNKQLADLELCPRE-OH; disulfide 1-13)	–	243
6.6 µM	6.4 µM	–	CC(C)[C@H](NC(=O)[C@H](CC(=O)O)NC(=O)[C@H](CO)NC(=O)[C@@H]1CSSC[C@H](NC(=O)[C@@H](N)CO)C(=O)N[C@@H](C)C(=O)N[C@@H](Cc2ccc(O)cc2)C(=O)N[C@@H]([C@@H](C)O)C(=O)N[C@@H](C)C(=O)N[C@@H](CCC(N)=O)C(=O)N[C@@H](CCCNC(=N)N)C(=O)N[C@@H](CCC(N)=O)C(=O)N1)C(=O)N1CCC[C@H]1C(=O)N[C@@H](CC(N)=O)C(=O)N1CCC[C@H]1C(=O)NCC(=O)O [IgEC69] (H-SCAYTAQRQCSDVPNPG-OH; disulfide 2-10)	–	11
> 600 µM	> 600 µM	–	CC[C@H](C)[C@H](NC(=O)CNC(=O)[C@@H]1CCCN1C(=O)[C@H](CCC(N)=O)NC(=O)[C@H](Cc1c[nH]cn1)NC(=O)[C@@H]1CCCN1C(=O)[C@@H](NC(=O)[C@H](CC(=O)O)NC(=O)[C@H](CO)NC(=O)[C@H](CCC(N)=O)NC(=O)[C@H](CS)NC(=O)[C@@H](N)CS)C(C)C)C(=O)N[C@@H](CC(N)=O)C(=O)N[C@@H](CC(=O)O)C(=O)N[C@@H](CC(C)C)C(=O)N[C@@H](Cc1c[nH]cn1)C(=O)N[C@H](C(=O)O)C(C)C [IgEC73] (H-CCQSDVPHQPGINDLHV-OH)	–	0
78 µM	6.3 µM	–	CSCC[C@H](NC(=O)[C@H](CC(N)=O)NC(=O)[C@@H](NC(=O)[C@@H](NC(=O)[C@H](CCC(N)=O)NC(=O)[C@@H](NC(=O)[C@H](CC(=O)O)NC(=O)[C@@H](NC(=O)[C@@H](NC(=O)[C@H](CS)NC(=O)[C@@H](N)CS)C(C)C)[C@@H](C)O)C(C)C)[C@@H](C)O)[C@@H](C)O)C(=O)N[C@@H](CC(=O)O)C(=O)N[C@H](C(=O)N1CCC[C@H]1C(=O)N[C@@H](C)C(=O)NCC(=O)N[C@@H](CCC(N)=O)C(=O)O)C(C)C [IgEC81] (H-CCVTDVQTTNMDVPAGQ-OH)	–	0

Further lines, the compound ahead of its results:

Compound	Kd (PTmAb0005 [1])	Kd (PTmAb0011 [3])	binding / affinity to PTmAb0005 (PTmAb0005 [4]; IgEC67 and its mutants, gIIIp display)	Rank (ECL) PTmAb0011 (PTmAb0011 [2])	Rank (ECL) PTmAb0005 (PTmAb0005 [4])
CC[C@H](C)[C@H](NC(=O)[C@@H]1CSSC[C@H](NC(=O)[C@@H](N)CCCNC(=N)N)C(=O)N[C@@H](CCC(=O)O)C(=O)N[C@@H](CCC(=O)O)C(=O)N[C@@H](Cc2c[nH]c3ccccc23)C(=O)N[C@@H](CC(C)C)C(=O)N1)C(=O)N1CCC[C@H]1C(=O)N1CCC[C@H]1C(=O)N[C@@H](C)C(=O)N1CCC[C@H]1C(=O)N[C@@H](C)C(=O)N[C@@H](Cc1ccccc1)C(=O)N[C@@H](C)C(=O)N1CCC[C@H]1C(=O)N1CCC[C@H]1C(=O)O [EEC21/19] (H-RCEEWLCIPPAPAFAPP-OH; disulfide 2-7)	14.9 µM	27.8 µM	–	3	–
CC[C@H](C)[C@@H]1NC(=O)[C@H](CCSC)NC(=O)[C@H](CCC(=O)O)NC(=O)[C@H](CO)NC(=O)CNC(=O)CNC(=O)[C@H](CC(C)C)NC(=O)[C@H](Cc2c[nH]c3ccccc23)NC(=O)[C@H](C(C)C)NC(=O)[C@H](CCC(=O)O)NC(=O)[C@H](CCCNC(=N)N)NC(=O)[C@@H](NC(=O)[C@@H](N)CO)CSSC[C@@H](C(=O)N[C@@H](CCC(=O)O)C(=O)O)NC(=O)[C@H](CC(=O)O)NC(=O)[C@H](CCSC)NC1=O [EEC39/50/129] (H-SCREVWLGGSEMIMDCE-OH; disulfide 2-16)	> 1000 µM	2.4 µM	–	1611	–
CC(C)C[C@@H]1NC(=O)[C@H](CC(=O)O)NC(=O)CNC(=O)[C@H](CCC(=O)O)NC(=O)[C@H](CCCNC(=N)N)NC(=O)[C@@H]2CCCN2C(=O)[C@H](Cc2ccccc2)NC(=O)[C@H](C)NC(=O)[C@@H]2CCCN2C(=O)[C@@H](NC(=O)[C@@H](N)CO)CSSC[C@@H](C(=O)N[C@@H](C)C(=O)N2CCC[C@H]2C(=O)N2CCC[C@H]2C(=O)N[C@H](C(=O)N[C@H](C(=O)O)C(C)C)[C@@H](C)O)NC1=O [EEC131] (H-SCPAFPREGDLCAPPTV-OH; disulfide 2-12)	> 1000 µM	42 µM	–	910	–
DALDERAWRARA [EEB33]	> 600 µM	117 µM	–	15	–
DCDWINPPDPPHFWKDT [EEC2/23/44/132]	> 600 µM	7 µM	–	33	–
GAMTAGQLSDLP [ESB25]	60 µM	> 1000 µM	–	–	0
KAGEQAMDMELR [ESB8]	257 µM	> 1000 µM	–	–	0
VAGGQVVDRELK [ESB10/38]	139 µM	> 1000 µM	–	–	0
